In paper PMC4035770 (Pharmaceuticals, 2014):
Where a name gives a salt, the structure may show the parent alone.

Columns and labels:
[1] = cited from earlier work
Nicotinic acetylcholine = test: Pharmacological screen, nicotinic acetylcholine receptor binding; settings: Nicotinic acetylcholine
Procedure: 2.4. Plasma LLOQ/Precision […]
of 10 ng/mL. […] ACN (200 µL) […]
was added and the solution was vortex mixed. The remaining mixture was centrifuged at 10,000 rpm […]
The final concentration was 1 ng/mL. […]
signal to noise ratio of three.
2.6. Brain LLOQ Accuracy/Precision
Aliquots (5 × 200 µL) were […]
transferred to 1.5 mL microcentrifuge tubes.
ACN (300 µL) was added and […]
the solution was vortex mixed. […] 200 µL
The solution was vortex mixed again and analysed by HPLC. Final concentrations were 12.5, 125 ng/mL.
2.7. Pharmacological Screening of N-Methyl Bupropion and Bupropion […]
nicotinic acetylcholine receptor [5,6] and SERT [7,8]. The specific nicotinic acetylcholine assays are […]
and nicotinic acetylcholine α7 [12].
3. Results Method Validation […]
diluent solutions separately.

[2] = Aqueous pH stability profile at 40 °C
[3] = design: method as in earlier work; settings: plasma samples; cited from earlier work
[4] = biological target: Muscarinic non -selective, central; test: Pharmacological screen, muscarinic receptor binding
[5] = biological target: T1, Norepinephrine transporter (NET) (Homo sapiens, UniProt P23975); test: Pharmacological screen, norepinephrine transporter; type: binding; settings: NET
T1 construct: MDS Pharma Services Taiwan
T1 sequence (P23975 whole entry): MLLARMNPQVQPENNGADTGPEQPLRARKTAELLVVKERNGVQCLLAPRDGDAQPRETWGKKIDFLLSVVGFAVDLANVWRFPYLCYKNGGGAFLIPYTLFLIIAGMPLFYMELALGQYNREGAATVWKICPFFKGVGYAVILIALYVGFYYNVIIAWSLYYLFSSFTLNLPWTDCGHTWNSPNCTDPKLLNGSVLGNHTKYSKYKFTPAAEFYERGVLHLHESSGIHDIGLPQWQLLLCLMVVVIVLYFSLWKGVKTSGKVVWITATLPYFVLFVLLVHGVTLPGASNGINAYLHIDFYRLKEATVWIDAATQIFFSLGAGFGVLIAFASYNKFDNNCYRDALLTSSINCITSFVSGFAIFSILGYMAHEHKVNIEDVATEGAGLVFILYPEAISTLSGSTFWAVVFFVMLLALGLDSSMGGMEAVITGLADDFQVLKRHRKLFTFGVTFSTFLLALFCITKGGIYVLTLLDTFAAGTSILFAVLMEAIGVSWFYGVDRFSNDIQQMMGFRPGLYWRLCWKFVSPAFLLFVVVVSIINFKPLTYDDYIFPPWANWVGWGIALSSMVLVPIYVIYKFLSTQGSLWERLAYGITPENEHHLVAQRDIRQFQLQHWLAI

[6] = Michaelis-Menten kinetics of bupropion formation in pooled human liver microsomes; type: in vitro ADME; design: intrinsic hepatic clearance (Cli, h): unit not given here
Procedure: Microsomes, NADPH regenerating solutions A and B were thawed rapidly to 37 °C, and then kept on ice until ready for use. Substrate solutions were prepared (1–500 µM) where the maximum concentration of DMSO was 1%, and the concentration of microsomes, NADPH regenerating solution B and phosphate buffer was fixed. After incubation for 5 min, NADPH regenerating solution A was added and the metabolism was initiated. Final volume was 100 μL. The tube was inverted twice and vortex mixed. The final concentrations of prodrug in this solution was 1–500 µM, HLM (0.1 mg/mL) or HIM (0.02 mg/mL), NADP^+ (1.3 mM), glucose-6-phosphate dehydrogenase (0.4 U/mL) and 1.0% DMSO. This solution was incubated for 20 min at 37 °C. The reaction was quenched by addition of 100 µL of acetonitrile. The mixture was centrifuged at 10,000 × g for 10 min. The supernatant was analyzed by LC-MS analysis.

[7] = Microsomal metabolic stability screen, pooled human intestinal microsomes (HIM); type: in vitro ADME; settings: 10 µM prodrug, 0.02 mg/mL HIM, NADPH regenerating system, 37 °C, 60 min, n = 2; LOD 0.1 ng/mL
Procedure: Human intestinal microsome (HIM) stock solution preparation. HIM (0.2 mL) stock was added to PBS solution (9.8 mL). Final concentration; 0.2 mg/mL.
(§1) Microsomes, NADPH regenerating solutions A and B were thawed rapidly to 37 °C, then kept on wet ice until ready for use. A stock solution of the prodrug (5 mM) was prepared in ACN. To a 1.7 mL microcentrifuge tube in a 37 °C water bath was added the phosphate buffered saline solution (349 µL), the NADPH regenerating solution A (50 µL), the NADPH regenerating solution B (50 µL), and the prodrug solution (1 µL). After incubation for 5 min, microsome solution (50 µL) was added and the metabolism was initiated. The tube was vortex mixed. The final concentrations in this solution was 10 µM prodrug, 0.1 mg/mL HLM or 0.02 mg/mL HIM, 1.3 mM NADP^+, 0.4 U/mL glucose-6-phosphate dehydrogenase and 0.2% organic solvent. This solution was incubated for 60 min at 37 °C. The reaction was quenched by addition of acetonitrile (500 µL). The mixture was centrifuged at 10,000 × g for 10 min. The supernatant was analyzed by LC-MS analysis.
The intestinal cells contain cytochome P450 enzymes, flavin monoxygenases, esterases and UDP glucuroyl transferases. Condition III involved the use of pooled human intestinal microsomes (HIM) in order to simulate the potential metabolism that occurs during absorption and passage through the intestinal wall.

[8] = Screening incubation in USP simulated gastric fluid (SGF); settings: incubation 37 °C, one hour, n = 2; <LOD = bupropion, its metabolites or other prodrugs not detected; LOD 0.1 ng/mL
Procedure: USP simulated gastric fluid preparation. Sodium chloride (0.02 g) and purified pepsin (0.032 g) that is derived from porcine stomach mucosa with an activity of 800 to 2,500 units per mg of protein were dissolved in 0.07 mL of concentrated hydrochloric acid and sufficient water to make 10 mL.
(§2) Pepsin is most efficient at cleaving peptide bonds between hydrophobic and aromatic amino acids such as phenylalanine, tryptophan and tyrosine. In order to simulate the pH and digestive enzymes of the stomach, USP simulated gastric fluid (SGF) was used. Conditions in the intestine were simulated using USP simulated intestinal fluid (SIF).
(§3) One hour metabolism or hydrolysis was considered to be sufficient time to generate detectable levels of metabolites, bearing in mind the likely exposure time in vivo. A blank media was used in each analysis to subtract a background from each LC-MS sample chromatogram. A t0 sample was also used to identify impurities related to each prodrug.
(§4) After one hour incubation of each compound in the selected media, the mixture was quenched with acetonitrile and the sample was centrifuged to remove precipitated proteins. The supernatant solution was analyzed immediately by LC-MS using data dependent acquisition analysis.
(§5) This transformation is commonly used to assess activity of oxidative enzyme CYP2B6 in human liver and intestinal microsomes. […] It was important to report if any of the other prodrugs were detected if for instance a possible multistep-prodrug was found.

[9] = Microsomal metabolic stability screen, pooled human liver microsomes (HLM); type: in vitro ADME; settings: 10 µM prodrug, 0.1 mg/mL HLM, NADPH regenerating system, 37 °C, 60 min, n = 2; LOD 0.1 ng/mL
Procedure: Human liver microsome (HLM) stock solution preparation. HLM (0.5 mL) stock was added to PBS solution (9.5 mL). Final concentration; 1 mg/mL. The PBS solution was prepared by addition of one USP PBS tablet (Sigma-Aldrich catalogue number P4417) dissolved in 200 mL deionised water.
as §1
After passing through the intestinal membrane into the portal circulation the prodrug quickly enters the liver. This metabolic condition was simulated in the present work by using pooled human liver microsomes (HLM).

[10] = Screening incubation in USP simulated intestinal fluid (SIF); settings: incubation 37 °C, one hour, n = 2; <LOD = bupropion, its metabolites or other prodrugs not detected; LOD 0.1 ng/mL
Procedure: USP simulated intestinal fluid preparation. Monobasic potassium phosphate (0.068 g) was dissolved in 2.5 mL of water and mixed. Sodium hydroxide (0.77 mL of 0.2 M) and water (5.0 mL) were added. Pancreatin (0.1 g) was added and the pH adjusted with either 0.2 M sodium hydroxide or 0.2 M hydrochloric acid to a pH of 6.8 ± 0.1. The solution was diluted to 10 mL with water.
as §2, §3, §4, §5

[11] = Screening incubation in pooled human plasma (PHP); type: in vitro ADME; settings: incubation 37 °C, one hour, n = 2; <LOD = bupropion, its metabolites or other prodrugs not detected; LOD 0.1 ng/mL
Text: Pooled human plasma solution preparation. Citrated human plasma was pooled together from three separate donors.
Finally, pooled human plasma (PHP) was used to evaluate the prodrug stability/activation in blood since the plasma fraction contains much of the hydrolase activity in blood.

[12] = In vitro metabolic screen in the five media (SGF, SIF, HIM, HLM, PHP), overall statement; type: in vitro ADME; settings: 37 °C, one hour, statement in words
Text: A summary of the oral prodrug candidate matrix we developed is illustrated in Figure 2. It contained six main conditions and can be applied to the development of any drug candidate. The work plan starts out with a concept molecule which in this case was bupropion. At this stage prodrug candidates are identified and the literature is searched for transformations that have been reported and methods used to carry out these transformations. […] After synthesis and purification of each potential prodrug, full spectroscopic characterization was performed. Each prodrug was screened in the metabolic media to assess its stability. Potential prodrug candidates were then selected for further in vitro enzyme kinetic and hydrolysis studies to evaluate the most likely prodrug for further in vivo assessment.
The five media (SGF, SIF, HIM, HLM and PHP) best represent the transit a drug or prodrug would take if delivered by the oral route of administration.

In the case of CC(NC(C)(C)C)C(=O)c1cccc(Cl)c1 (racemic) [Bupropion, Rac-bupropion hydrochloride, reference compound], the “aqueous stability profile above pH 5” value [1] is given as “poor stability profile”, the IC50 (Nicotinic acetylcholine) is given as > 100 µM and the “aqueous degradation rate above pH 12” value ([2]; above pH 12) is given as “rate of degradation increases significantly”. For the same compound, the “aqueous stability / degradation rate below pH 5” value ([2]; below pH 5) was “stable”, the “sample stability in plasma (pH)” value [3] was “stable at low pH” and the IC50 [4] was 86.5 µM. The Ki ([4]; Cheng and Prusoff) was 27 µM and the “nH (Hill coefficient)” value [5] was 0.835.

With CC(C(=O)c1cccc(Cl)c1)N(Cc1ccccc1)C(C)(C)C (racemic) [Compound 5, Rac-N-benzyl bupropion] the “intrinsic hepatic clearance (Cli, h)” value ([6]; from HLM Michaelis-Menten parameters) was 87, the “Vmax of bupropion formation” value ([6]; pooled HLM 0.1 mg/mL, substrate 1–500 µM, 20 min, 37 °C, n = 6) was 1323 ± 42.2 pmol/min/mg HLM and the “Primary product detected in media HIM” value [7] was “The major product was bupropion”. The “Primary product detected in media SGF” value [8] was “<LOD”, the “Primary product detected in media HLM” value [9] was “The major product was bupropion” and the “Primary product detected in media SIF” value [10] was “<LOD”. The “Primary product detected in media PHP” value [11] was “<LOD”.

In the case of CC1C(c2cccc(Cl)c2)=NOCN1C(C)(C)C (racemic) [Compound 10, Rac-oxadiazine of bupropion], the “Primary product detected in media SGF” value [8] is reported as “<LOD”, the “Primary product detected in media SIF” value [10] is reported as “<LOD” and the “Primary product detected in media PHP” value [11] is reported as “<LOD”.

In the case of CC1C(c2cccc(Cl)c2)=NOC(=O)N1C(C)(C)C (racemic) [Compound 11, Rac-oxadiazinone of bupropion], the “Primary product detected in media HIM” value [7] is reported as “<LOD”, the “Primary product detected in media SGF” value [8] is reported as “<LOD” and the “Primary product detected in media HLM” value [9] is reported as “<LOD”. The “Primary product detected in media SIF” value [10] was “<LOD”, the “Product / activation to bupropion or its metabolites on screening in the metabolic media” value (from here on “Product / activation”) [12] was “resistant to all of the screening conditions” and the “Primary product detected in media PHP” value [11] was “<LOD”.

For CO/C(=C(/C)N(C)C(C)(C)C)c1cccc(Cl)c1 [Compound 6, E/Z-N,O-dimethylated bupropion], the “Primary product detected in media SGF” value [8] was “<LOD”, the “Primary product detected in media SIF” value [10] was “<LOD” and the “Product / activation” value [12] was “N-methylbupropion (4)”. The “Primary product detected in media PHP” value [11] was “<LOD”.

In the case of CO/C(=C(/C)N(Cc1ccccc1)C(C)(C)C)c1cccc(Cl)c1 [Compound 7, (E/Z)-O-methyl N-benzyl bupropion], the “Primary product detected in media HIM” value [7] is reported as “O-demethylated to N-benzylbupropion (5)”, the “Primary product detected in media SGF” value [8] is reported as “<LOD” and the “Primary product detected in media HLM” value [9] is reported as “O-demethylated to N-benzylbupropion (5)”. For the same compound, the “Primary product detected in media SIF” value [10] was “<LOD” and the “Primary product detected in media PHP” value [11] was “<LOD”.

In the case of CC(=O)O/C(=C(/C)N(C(C)=O)C(C)(C)C)c1cccc(Cl)c1 [Compound 8, (E/Z)-N,O-diacetylated bupropion], the “Primary product detected in media HIM” value [7] is reported as “<LOD”, the “Primary product detected in media SGF” value [8] is reported as “<LOD” and the “Primary product detected in media HLM” value [9] is reported as “<LOD”. For the same compound, the “Primary product detected in media SIF” value [10] was “<LOD”, the “Product / activation” value [12] was “did not result in any activation back to bupropion or its metabolites” and the “Primary product detected in media PHP” value [11] was “<LOD”.

With CC(NC(C)(C)C)/C(=N/O)c1cccc(Cl)c1 (stereo not drawn) [Compound 9, syn- and anti-bupropion hydroxyimine] the “Primary product detected in media HIM” value [7] was “<LOD”, the “Primary product detected in media SGF” value [8] was “<LOD” and the “Primary product detected in media HLM” value [9] was “<LOD”. The “stability / hydrolysis in simulated gastric fluid” value (SGF pH 1.2, 37 °C) was “none was detected”, the “stability at physiological pH” value (phosphate buffered saline pH 7.4, 37 °C) was “much greater stability than bupropion” and the “Primary product detected in media SIF” value [10] was “<LOD”. For the same compound, the “Product / activation” value [12] was “neither bupropion nor any of its metabolites were detected” and the “Primary product detected in media PHP” value [11] was “<LOD”.

In the case of Cc1c(-c2cccc(Cl)c2)oc(=O)n1C(C)(C)C [Compound 12, oxazolone of bupropion], the “Primary product detected in media HIM” value [7] is reported as “<LOD”, the “Primary product detected in media SGF” value [8] is reported as “<LOD” and the “Primary product detected in media HLM” value [9] is reported as “<LOD”. The “Primary product detected in media SIF” value [10] was “<LOD”, the “Product / activation” value [12] was “no bupropion or metabolites thereof detected” and the “Primary product detected in media PHP” value [11] was “<LOD”.
